According to patent US20140255330A1, “Mixed Sugar Compositions” (THE PROCTER & GAMBLE COMPANY, priority 2013, published 2014):
Each block holds one molecule with its values, some of them ahead of it.

Tests used:
[1] = Thermal transition determination via DSC, -20° C. to 160° C. at 20° C./min; assay type: physicochemical; settings: C12-NMG:C12-NMX; for T Intercept / T Peak Max: peak 1; for T Intercept-3 / T Peak Max-3: peak 3
Experimental: (§1) A Tzero Hermetic pan & lid was charged with ˜10-15 mg mixed material sample described in Examples 22. A Direct Scanning Coulometer, DSC Q2000 V24.9 was used to determine thermal transitions. A DSC is able to detect phase transitions within a material that might not be visible to the naked eye. The following temperature profile was used to obtain the data: ambient temperature cooled to −20° C. at 20° C./min, −20° C. to 160° C. at 20° C./min. The T intercept is defined as the temperature where the extrapolated slope of the initial curve of a peak intercepts the interpolated baseline of that peak. T Peak Max is defined as the temperature at the peak (inflection point) of a given curve.
Temperature program: Ambient temperature to −20° C. at 20° C./min, −20° C. to 160° C. at 20° C./min.

[2] = Visual melting point determination (capillary melting point apparatus); assay type: physicochemical; settings: for Ending MP: transparent gel to liquid
From the text: A Kimax −51 capillary tube (size 1.5−1.8×90 mm) was charged with the mixed C12-NMG:C12-NMX samples described in Example 22 to afford ˜½ inch sample bed. A Tomas Hoover Capillary Melting Point Apparatus was used to determine melting points visually. The Starting Melting Point (MP) is defined as the temperature (° C.) when the initial white opaque solid has completed the transition to a transparent gel. The Ending Melting Point (MP) is defined as the temperature (° C.) when the transparent gel transitions to liquid.
The procedure of Example 27 was followed using the mixed C12-NMG:C12-NMGly samples described in Example 23.

[3] = literature values; cited from earlier work
[4] = Thermal transition determination via DSC, -40° C. program (procedure of Example 30); assay type: physicochemical; settings: for T Intercept-2 / T Peak Max-2: peak 2
Experimental: as §1, with “transitions.” for “transitions. A DSC is able to detect phase transitions within a material that might not be visible to the naked eye.”, “−40°” for “−20°”
Temperature program: Ambient temperature to −40° C. at 20° C./min, −40° C. to 140° C. at 20° C./min.
(§2) The procedure of Example 30 was followed using the mixed C12-ene-NMG:C12-ene-NMX samples described in Example 24.
The procedure of Example 30 was followed using the mixed C15-ene-NMG:C15-ene-NMX samples described in Example 25. […]
The procedure of Example 30 was followed using the mixed NMHG:NMHX samples described in Example 46.

[5] = Physical consistency of samples noted at ambient temperature; assay type: physicochemical; settings: when placed into DSC pan
From the text: as §2
The procedure of Example 30 was followed using the mixed C15-ene-NMG:C15-ene-NMX samples described in Example 25.
The procedure of Example 30 was followed using the mixed CCO-NMG:CCO-NMX samples described in Example 37.

[6] = Krafft Point analysis, Phase Technology NK60-KPA Analyzer (Diffusive Light Scattering); assay type: physicochemical; settings: 1 wt % solutions of C12-NMG and C12-NMX in deionized water mixed by volume
Experimental: Krafft Point analysis was performed on a Phase Technology® NK60-KPA Analyzer that used a Diffusive Light Scattering (DLS) detection method. A 1 wt % solution was prepared in deionized water and 0.150 ml of this solution was added to the sample cell of the instrument at room temperature (20-25° C.). The following heating and cooling cycle was executed on the sample. Samples were warmed to 40° C. at a ramp rate of 5° C./min and held for 30 seconds. Next, Samples were cooled to −20° C. at a rate of −10° C./min and held for 60 seconds. Samples were then warmed to 0° C. at a rate of 5° C./min, held for 0 seconds, warmed to 30° C. at a rate of 2° C./min, held for 0 seconds and lastly warmed to 40° C. at a rate of 5° C./min.
Data was recorded as crystal count (y-axis) versus temperature (x-axis). […] During final warming cycle, when crystal count returned to original baseline, the temperature at that point was recorded as the Krafft point.
(§3) 1 wt % solutions of each of the materials in the table below were tested. […] A volume of 0.150 mL of this mixture was then analyzed via the Phase Technology® NK60-KPA Analyzer.
as §3

[7] = C12-NMG:C12-NMGly blends by weight
[8] = C12-NMG:C12-NMX blends by weight
[9] = C12-NMG:C12-NMX blends by weight, white opaque solid to transparent gel
[10] = C12-ene-NMG:C12-ene-NMX, peak 1, ** = No peak was observed
[11] = C15-ene-NMG:C15-ene-NMX, peak 1, ** = No peak was observed

T Intercept [1]: 84.1 °C
T Peak Max [1]: 94.7 °C
T Intercept-3 [1]: 136.7 °C
T Peak Max-3 [1]: 137.9 °C
Ending PM [2, 7]: 127.2 °C
Starting MP [2, 7]: 96.8 °C
Ending MP [2, 8]: 129.8 °C
Starting MP [2, 9]: 96 °C
T Intercept ([4]; C12-NMG:C12-NMGly, peak 1): 82.0 °C
T Peak Max ([4]; C12-NMG:C12-NMGly, peak 1): 94.7 °C
T Intercept-2 ([4]; C12-NMG:C12-NMGly): 137.0 °C
Molecule: CCCCCCCCCCCC(=O)N(C)C[C@H](O)[C@@H](O)[C@H](O)[C@H](O)CO [Example C12-NMG, N-Dodecanoyl-N-Methylglucamine]
initial melting point (Zhu et al) [3]: 90.5-91.5 °C

Ending PM [2, 7]: 52.8 °C
Starting MP [2, 7]: 46.3 °C
T Intercept ([4]; C12-NMG:C12-NMGly, peak 1): 44.5 °C
T Peak Max ([4]; C12-NMG:C12-NMGly, peak 1): 49.6 °C
T Intercept-2 ([4]; C12-NMG:C12-NMGly): 117.2 °C
Molecule: CCCCCCCCCCCC(=O)N(C)CC(O)CO (centres unmarked) [Example C12-NMGly, N-Dodecanoyl-(3-methylamino-1,2-propanediol)]
initial melting point (Zhu et al) [3]: 40-40.5 °C

T Intercept [1]: 69.7 °C
T Peak Max [1]: 77.0 °C
T Intercept-3 [1]: 95.6 °C
T Peak Max-3 [1]: 97.2 °C
Ending MP [2, 8]: 96.6 °C
Starting MP [2, 9]: 76 °C
Molecule: CCCCCCCCCCCC(=O)N(C)CC(O)C(O)C(O)CO (centres unmarked) [Example C12-NMX, N-Dodecanoyl-N-Methylxylamine]
initial melting point (Zhu et al) [3]: 74-75 °C

physical consistency of sample [5]: powders
T Intercept [4, 10]: 67.0 °C
T Peak Max [4, 10]: 78.7 °C
T Intercept-2 ([4]; C12-ene-NMG:C12-ene-NMX): 106.1 °C
T Peak Max-2 ([4]; C12-ene-NMG:C12-ene-NMX): 108.5 °C
Molecule: CCC=CCCCCCCCC(=O)N(C)C[C@H](O)[C@@H](O)[C@H](O)[C@H](O)CO [Example C12-ene-NMG, N-(9-Dodecenoyl)-N-Methylglucamine]

physical consistency of sample [5]: waxy in nature
T Intercept [4, 10]: 26.0 °C
T Peak Max [4, 10]: 28.6 °C
T Intercept-2 ([4]; C12-ene-NMG:C12-ene-NMX): 86.2 °C
T Peak Max-2 ([4]; C12-ene-NMG:C12-ene-NMX): 89.5 °C
Molecule: CCC=CCCCCCCCC(=O)N(C)CC(O)C(O)C(O)CO (centres unmarked) [Example C12-ene-NMX, N-(9-Dodecenoyl)-N-Methylxylamine]

T Intercept [4, 11]: 64.1 °C
T Peak Max [4, 11]: 77.9 °C
T Intercept-2 ([4]; C15-ene-NMG:C15-ene-NMX): 144.6 °C
T Peak Max-2 ([4]; C15-ene-NMG:C15-ene-NMX): 146.2 °C
Molecule: CCCCCC=CCCCCCCCC(=O)N(C)C[C@H](O)[C@@H](O)[C@H](O)[C@H](O)CO [Example C15-ene-NMG, N-(9-Pentadecenoyl)-N-Methylglucamine]

physical consistency of sample [5]: waxy in nature
T Intercept [4, 11]: 27.5 °C
T Peak Max [4, 11]: 38.8 °C
T Intercept-2 ([4]; C15-ene-NMG:C15-ene-NMX): 113.0 °C
T Peak Max-2 ([4]; C15-ene-NMG:C15-ene-NMX): 115.5 °C
Molecule: CCCCCC=CCCCCCCCC(=O)N(C)CC(O)C(O)C(O)CO (centres unmarked) [Example C15-ene-NMX, N-(9-Pentadecenoyl)-N-Methyl-Xylamine]

T Intercept ([4]; NMHG:NMHX blends by weight): 48.6 °C
T Peak Max ([4]; NMHG:NMHX blends by weight): 52.3 °C
Molecule: CCCCCCN(C)C[C@H](O)[C@@H](O)[C@H](O)CO [NMHX, N-Methyl Hexyl Xylamine]

Krafft Point [6]: 37 °C
Molecule: CCCCCCCCCCCC(=O)N(C)C[C@H](O)[C@@H](O)[C@H](O)[C@H](O)CO [Solution 13, N-Dodecanoyl-N-Methylglucamine]

T Intercept ([4]; NMHG:NMHX blends by weight): 73.8 °C
T Peak Max ([4]; NMHG:NMHX blends by weight): 79.0 °C
Molecule: N-Methyl Hexyl Glucamine [NMHG]

Molecule: N-Methylglucamine [Example 1]
Krafft Point [6]: 20 °C
